The experiment can be described thus: Dual-Glo Luciferase Assay: The Dual-Glo Luciferase Reagent was prepared by transferring the contents of one bottle of Dual-Glo Luciferase Buffer to one bottle of Dual-Glo Luciferase Substrate to create the Dual-Glo Luciferase Reagent. Mixing was performed by inversion until the substrate was thoroughly dissolved. After mixing, the reagent was aliquoted into 15 ml tubes. In the afternoon (24 hrs post compound treatment), the DMEM+medium in the 384 well plates were aspirated by Microplate Washer.Measuring firefly luciferase activity: 20 ul Dual-Glo Luciferase Reagent was added to the 384-well plates. The plates were protected from light to prevent interference with the assay. The plates were shaken for 1 min followed centrifuging plates at 1000 rpm for 30 seconds. After waiting at least 10 minutes, the firefly luminescence was measured by Envision.Measuring renilla luciferase activity: 20 ul Stop-Glo Reagent was added to the 384-well plates. The plates were shaken for 1 min and then centrifuged at 1000 rpm for 30 seconds. After waiting at least 10 minutes, the renilla luminescence was measured by Envision.Compound IC50 and maximum inhibition on the firefly luciferase and renilla luciferase activities were reported separately.

The IC50 is the concentration needed to halve the response being measured. A lower IC50 goes with greater potency in that assay. Take `N#CCCNC(=O)c1ccc2c(Oc3ccc(C(F)(F)F)cc3)cccc2c1`: the half-inhibitory concentration (IC50) is less than 100 nM.
Next, `C[C@H](NC(=O)c1ccc2c(Oc3ccc(C(F)(F)F)cc3)cccc2c1)C1CN(C2CC2)C1`: “in the range around 2000 nM”; `CC(C)NC(=O)c1ccc2c(Oc3ccc(C(F)(F)F)cc3Cl)cccc2c1`: less than 100 nM.
The result for `C[C@H](NC(=O)c1ccc2c(Oc3ccc(C(F)(F)F)cc3)cccc2c1)c1c[nH]cn1` reads less than 100 nM; that for `O=C(N[C@@H](CCO)c1ccccn1)c1ccc2c(Oc3ccc(C(F)(F)F)cc3)cccc2c1`, less than 100 nM.
Next, `CC(C)N1CC([C@H](C)NC(=O)c2ccc3c(Oc4ccc(C(F)(F)F)cc4)cccc3c2)C1`: “in the range around 550 nM”; `C[C@@H](NC(=O)c1ccc2c(Oc3ccc(C(F)(F)F)cc3)cccc2c1)c1cccc(N)n1`: less than 100 nM.
With `CC(NC(=O)c1ccc2c(Oc3ccc(C(F)(F)F)cc3)cccc2c1)c1cc(Br)ccn1` (stereo unspecified), the IC50 is less than 100 nM.
Next, `C[C@@H](NC(=O)c1ccc2c(Oc3ccc(C(F)(F)F)cc3)cccc2c1)C1CN(C)C1`: “in the range around 550 nM”.
Consider `CCN1CCC([C@@H](C)NC(=O)c2ccc3c(Oc4ccc(C(F)(F)F)cc4)cccc3c2)CC1`, for which the IC50 result is “in the range around 550 nM”.
Next, `C[C@H](NC(=O)c1ccc2c(Oc3ccc(C(F)(F)F)cc3)cccc2c1)c1nn[nH]n1`: “in the range around 2000 nM”; `C[C@H](NC(=O)c1ccc2c(Oc3ccc(C(F)(F)F)cc3)cccc2c1)C1CN(C)C1`: “in the range around 2000 nM”.
Compound `C[C@@H](NC(=O)c1ccc2c(Oc3ccc(C(F)(F)F)cc3)cccc2c1)c1cccc2cn[nH]c12` showed an IC50 of less than 100 nM.
With `C[C@@H](NC(=O)c1ccc2c(Oc3ccc(C(F)(F)F)cc3)cccc2c1)C1CCNCC1`, the IC50 was less than 100 nM.
Next, `CC(C)NC(=O)c1ccc2c(Oc3ccc(F)c(F)c3)cccc2c1`: less than 100 nM.
The result for `C#CCNC(=O)c1ccc2c(Oc3ccc(C(F)(F)F)cc3)cccc2c1` reads less than 100 nM.
The result for `NS(=O)(=O)c1ccc2c(Oc3ccc(C(F)(F)F)cc3)cccc2c1` reads less than 100 nM; that for `C[C@@H](NC(=O)c1ccc2c(Oc3ccc(C(F)(F)F)cc3)cccc2c1)C(N)=O`, less than 100 nM.
As to `COC[C@@H](C)NC(=O)c1ccc2c(Oc3ccc(C(F)(F)F)cc3)cccc2c1`, the IC50 is less than 100 nM.
On to `O=C(N[C@H](CO)C1CNC1)c1ccc2c(Oc3ccc(C(F)(F)F)cc3)cccc2c1`, for which the IC50 result is “in the range around 550 nM”.
Next, `C[C@H](NC(=O)c1ccc2c(Oc3ccc(C(F)(F)F)cc3)cccc2c1)C1(F)CNC1`: “in the range around 2000 nM”.
Take `C[C@@H](NC(=O)c1ccc2c(Oc3ccc(C(F)(F)F)cc3)cccc2c1)C1CCN(C)CC1`: the IC50 is less than 100 nM.
Consider `C[C@@H](NC(=O)c1ccc2c(Oc3ccc(C(F)(F)F)cc3)cccc2c1)C1CCN(CCO)CC1`, for which the IC50 result was “in the range around 550 nM”.
The result for `COc1cc(Oc2ccc(C(F)(F)F)cc2)c2ncc(C(=O)N[C@H](C)c3ccccn3)cc2c1` reads “in the range around 550 nM”; that for `C[C@H](NC(=O)c1ccc2c(Oc3ccc(C(F)(F)F)cc3)cccc2c1)C1COC1`, less than 100 nM.
The result for `O=C(NC1(c2ccccn2)CC1)c1ccc2c(Oc3ccc(C(F)(F)F)cc3)cccc2c1` reads less than 100 nM; that for `C[C@@H](NC(=O)c1ccc2c(Oc3ccc(C(F)(F)F)cc3)cccc2c1)c1nnn(C)n1`, “in the range around 550 nM”; that for `C[C@H](CN)NC(=O)c1ccc2c(Oc3ccc(C(F)(F)F)cc3)cccc2c1`, “in the range around 550 nM”.
The result for `C[C@@H](CCN)NC(=O)c1ccc2c(Oc3ccc(C(F)(F)F)cc3)cccc2c1` reads less than 100 nM; that for `CC(C)NC(=O)c1ccc2c(Oc3ccc(C(F)(F)F)cc3)cccc2n1`, less than 100 nM; that for `C[C@H](NC(=O)c1ccc2c(Oc3ccc(C(F)(F)F)cc3)cccc2c1)c1cn(C)cn1`, “in the range around 550 nM”.
In turn, `CC(C)NC(=O)c1cnc2c(Oc3ccc(C(F)(F)F)cc3)cccc2c1` displayed an IC50 of less than 100 nM.
On to `C[C@H](NC(=O)c1cc2cccc(Oc3ccc(C(F)(F)F)cc3)c2s1)c1ccccn1`, for which the IC50 was less than 100 nM.
The result for `C[C@@H](NC(=O)c1ccc2c(Oc3ccc(C(F)(F)F)cc3)cccc2c1)C1CN(CCF)C1` reads less than 100 nM.
Next, `C[C@@H](NC(=O)c1ccc2c(Oc3ccc(C(F)(F)F)cc3)cccc2c1)C1CCN(CCF)CC1`: “in the range around 550 nM”; `CC(C)NC(=O)c1cnc2c(Oc3ccc(C(F)(F)F)cc3)cc(F)c(F)c2c1`: less than 100 nM; `C[C@H](NC(=O)c1ccc2c(Oc3ccc(C(F)(F)F)cc3)cccc2c1)c1ccccn1`: less than 100 nM.
The result for `CNS(=O)(=O)c1ccc2c(Oc3ccc(Cl)c(Cl)c3)cccc2c1` reads less than 100 nM; that for `C[C@H](NC(=O)c1ccc2c(Oc3ccc(C(F)(F)F)cc3)cccc2c1)c1nccn1C`, “in the range around 550 nM”.
Regarding `C[C@@H](NC(=O)c1ccc2c(Oc3ccc(C(F)(F)F)cc3)cccc2c1)C1CN(CCCCO)C1`, the IC50 entry is “in the range around 550 nM”.
Turning to `O=C(N[C@@H](CO)c1ccccn1)c1ccc2c(Oc3ccc(C(F)(F)F)cc3)cccc2c1`, the IC50 result was “in the range around 550 nM”.
Next, `CC#C[C@@H](C)NC(=O)c1ccc2c(Oc3ccc(C(F)(F)F)cc3)cccc2c1`: less than 100 nM; `C[C@@H](NC(=O)c1ccc2c(Oc3ccc(C(F)(F)F)cc3)cccc2c1)c1cc(N(C)C)ccn1`: “in the range around 2000 nM”.
The result for `C[C@@H](NC(=O)c1ccc2c(Oc3ccc(C(F)(F)F)cc3)cccc2c1)c1cccc2ccc(=O)[nH]c12` reads less than 100 nM; that for `C[C@@H](NC(=O)c1ccc2c(Oc3ccc(C(F)(F)F)cc3)cccc2c1)C1(O)CNC1`, less than 100 nM; that for `C[C@H](CO)NC(=O)c1cnc2c(Oc3ccc(C(F)(F)F)cc3)cc(F)c(F)c2c1`, less than 100 nM.
Next, `C[C@@H](NC(=O)c1ccc2c(Oc3ccc(C(F)(F)F)cc3)cccc2c1)C1CN(C2CC2)C1`: less than 100 nM; `COC[C@H](C)NC(=O)c1cnc2c(Oc3ccc(C(F)(F)F)cc3)cccc2c1`: less than 100 nM; `C[C@H](NC(=O)c1ccc2c(Oc3ccc(C(F)(F)F)cc3)cccc2c1)c1nnn(C)n1`: less than 100 nM.
Consider `C[C@@H](NC(=O)c1ccc2c(Oc3ccc(C(F)(F)F)cc3)cccc2c1)c1ncc[nH]1`, for which the IC50 was less than 100 nM.
The result for `O=C(NC1(c2ccccc2)COC1)c1ccc2c(Oc3ccc(C(F)(F)F)cc3)cccc2c1` reads less than 100 nM.
The result for `C[C@@H](NC(=O)c1ccc2c(Oc3ccc(C(F)(F)F)cc3)cccc2c1)c1nccn1C` reads “in the range around 550 nM”.
Next, `COc1cc(Oc2ccc(C(F)(F)F)cc2)c2ncc(C(=O)NC(CO)c3ccccn3)cc2c1` (stereo unspecified): less than 100 nM; `CNS(=O)(=O)c1ccc2c(Oc3ccc(C(F)(F)F)cc3)cccc2c1`: less than 100 nM; `CC(C)N1CCC([C@@H](C)NC(=O)c2ccc3c(Oc4ccc(C(F)(F)F)cc4)cccc3c2)CC1`: “in the range around 550 nM”.
For `C[C@H](CO)NC(=O)c1ccc2c(Oc3ccc(C(F)(F)F)cc3)cccc2c1`, the IC50 was less than 100 nM.
The result for `N#CCNC(=O)c1ccc2c(Oc3ccc(C(F)(F)F)cc3)cccc2c1` reads less than 100 nM; that for `O=C(N[C@H](CO)c1ccccn1)c1ccc2c(Oc3ccc(C(F)(F)F)cc3)cccc2c1`, less than 100 nM; that for `C[C@@H](CCO)NC(=O)c1ccc2c(Oc3ccc(C(F)(F)F)cc3)cccc2c1`, less than 100 nM.
For the compound `O=C(NC(CCO)c1ccccn1)c1ccc2c(Oc3ccc(C(F)(F)F)cc3)cccc2c1` (stereo unspecified), the IC50 was less than 100 nM.
The result for `C[C@H](NC(=O)c1ccc2c(Oc3ccc(C(F)(F)F)cc3)cccc2c1)C1(O)CNC1` reads “in the range around 550 nM”; that for `C[C@@H](NC(=O)c1ccc2c(Oc3ccc(C(F)(F)F)cc3)cccc2c1)C1CNC1`, less than 100 nM.
Next, `CCN1CC([C@@H](C)NC(=O)c2ccc3c(Oc4ccc(C(F)(F)F)cc4)cccc3c2)C1`: “in the range around 550 nM”.
Next, `C[C@H](NC(=O)c1ccc2c(Oc3ccc(C(F)(F)F)cc3)cccc2c1)C1CN(CCF)C1`: “in the range around 2000 nM”; `C[C@H](NC(=O)c1ccc2c(Oc3ccc(C(F)(F)F)cc3)cccc2c1)c1cccc(N(C)C)n1`: “in the range around 550 nM”; `CC(C)NC(=O)c1cc2cccc(Oc3ccc(C(F)(F)F)cc3)c2s1`: less than 100 nM.
Turning to `C[C@H](NC(=O)c1ccc2c(Oc3ccc(C(F)(F)F)cc3)cccc2c1)c1nnnn1C`, the IC50 entry is “in the range around 550 nM”.
The result for `C[C@H](NC(=O)c1cnc2c(Oc3ccc(C(F)(F)F)cc3)cccc2c1)c1cccc2nc[nH]c12` reads less than 100 nM; that for `C[C@H](NC(=O)c1cnc2c(Oc3ccc(C(F)(F)F)cc3)cccc2c1)c1ccccn1`, less than 100 nM.
As for `CNCCCNC(=O)c1ccc2c(Oc3ccc(C(F)(F)F)cc3)cccc2c1`, the IC50 was less than 100 nM.
The result for `CN(C#N)CCCNC(=O)c1ccc2c(Oc3ccc(C(F)(F)F)cc3)cccc2c1` reads less than 100 nM; that for `CC(C)NC(=O)c1ccc2c(Oc3ccc(C(F)(F)F)cc3)cncc2c1`, less than 100 nM; that for `CCNCC[C@@H](C)NC(=O)c1ccc2c(Oc3ccc(C(F)(F)F)cc3)cccc2c1`, less than 100 nM.
`COC[C@@H](C)NC(=O)c1cnc2c(Oc3ccc(C(F)(F)F)cc3)cccc2c1`: the IC50 entry was “in the range around 550 nM”.
Next, `C[C@H](CCN(C)C)NC(=O)c1ccc2c(Oc3ccc(C(F)(F)F)cc3)cccc2c1`: less than 100 nM; `CNCCNC(=O)c1ccc2c(Oc3ccc(C(F)(F)F)cc3)cccc2c1`: “in the range around 550 nM”.

For the origin of these results see ChEMBL document CHEMBL5729264, “Bicyclic compounds” (2022).
